Results on four molecules are retold here after PMC7181131, “N-Pyrazinoyl Substituted Amino Acids as Potential Antimycobacterial Agents—the Synthesis and Biological Evaluation of Enantiomers” (Molecules, 2020).

In series [1] the test system is Candida albicans CCM 8320 (ATCC 24433). Nature of the series: Antifungal microdilution broth method, CA. Type of series: cell-based. The following applies: 24 h, read-out: MIC CA. A general note: In broth dilution the organism is exposed to a series of concentrations in liquid medium.
Series [2] has as its system Mtb H37Ra ITM-M006710 (ATCC 9431). Nature of the series: Microplate Alamar Blue Assay (MABA) microdilution, Mtb H37Ra. Type of series: cell-based, Mycobacterium tuberculosis. The following applies: Mycobacterium tuberculosis. (Alamar Blue is a resazurin reagent that responds to reducing activity.)
The subject of series [3] is Candida krusei CCM 8271 (ATCC 6258). Nature of the series: Antifungal microdilution broth method, CK. Type of series: cell-based. The conditions noted are these: Pichia kudriavzevii, 24 h, read-out: MIC CK.
The subject of series [4] is M. smegmatis DSM 43465 (ATCC 607). As to the kind of experiment: Microplate Alamar Blue Assay (MABA) microdilution, M. smegmatis. The format is cell-based, Mycobacterium smegmatis. The following applies: Mycolicibacterium smegmatis.
Series [5] has as its system Trichophyton interdigitale CCM 8377 (ATCC 9533). Nature of the series: Antifungal microdilution broth method, TI. The following applies: 48 h, read-out: MIC TI. Type of series: cell-based.
In series [6] the test system is Candida parapsilosis CCM 8260 (ATCC 22019). As to the kind of experiment: Antifungal microdilution broth method, CP. The format is cell-based. The following applies: Lodderomyces parapsilosis, 24 h, read-out: MIC CP.
The test system of series [7] is Mycobacterium aurum DSM 43999 (ATCC 23366). Nature of the series: Microplate Alamar Blue Assay (MABA) microdilution, M. aurum. Type of series: cell-based. The conditions noted are these: Mycolicibacterium aurum.
Series [8] concerns Staphylococcus epidermidis CCM 4418 (ATCC 12228). Nature of the series: Antibacterial microdilution broth method, SE. Type of series: cell-based. The following applies: 24 h, read-out: MIC SE.
The test system of series [9] is Klebsiella pneumoniae CCM 4415 (ATCC 10031). As to the kind of experiment: Antibacterial microdilution broth method, KP. The following applies: read after 24 h of incubation.
Series [10] has as its system Lichtheimia corymbifera CCM 8077. Nature of the series: Antifungal microdilution broth method, LC. The format is cell-based. The conditions noted are these: CCM8077, 48 h, read-out: MIC LC.
Series [11] relates to Aspergillus fumigatus ATCC 204305. Nature of the series: Antifungal microdilution broth method, AF. The conditions noted are these: ATCC204305, 48 h, read-out: MIC AF. The format is cell-based.
For series [12], the system named is Aspergillus flavus CCM 8363. As to the kind of experiment: Antifungal microdilution broth method, AFla. Type of series: cell-based. The conditions noted are these: CCM8363, read after 48 h (filamentous fungi), read-out: MIC AFla. The procedure: 6. In vitro antifungal activity screening
Antifungal activity evaluation was performed using a microdilution broth method according to EUCAST instructions (The European Committee on Antimicrobial Susceptibility Testing) with slight modifications. Eight fungal strains (four yeast and four mould strains) were used for antifungal […]
and Trichophyton interdigitale CCM 8377 (ATCC 9533). Tested strains were purchased from the Czech Collection of Microorganisms (CCM, Brno, Czech Republic) or from the American Type Collection Cultures (ATCC, Manassas, VA, USA). Tested compounds were dissolved in DMSO and diluted in a twofold manner with RPMI 1640 medium, with glutamine and 2% glucose, buffered to pH 7.0 with MOPS (3-morpholinopropane-1-sulfonic acid). The final concentration of DMSO in the testing […]
Static incubation was performed in the dark and in humid atmosphere, at 35±2 °C, for 24 and 48 h (72 and 120 h for Trichophyton interdigitale respectively). Positive controls consisted of test microbe solely, while negative controls consisted of cultivation medium and DMSO. Visual inspection and metabolic activity indicator, Alamar Blue (ThermoFisher Scientific), were used for MIC endpoint evaluation. The internal quality standards, amphotericin B (Sigma-Aldrich) and voriconazole (Toronto research Chemicals, CA) were involved in assays (for MIC of standards see Table S5). All experiments were conducted in duplicates.
For the results to be valid, the difference in MIC for one compound determined from two parallel measurements must not be greater than one step on the dilution scale.

Series [13] concerns Candida tropicalis CCM 8264 (ATCC 750). As to the kind of experiment: Antifungal microdilution broth method, CT. Type of series: cell-based. The conditions noted are these: 24 h, read-out: MIC CT.
[14] abbreviates: pH 6.6, read-out: MIC Mtb H37Ra.
Where [15] appears, read: pH 6, calculated from µg/mL, read-out: MIC Mtb H37Ra.
Where [16] appears, read: pH 6, read-out: MIC M. smegmatis µg/mL.
The mark [17] stands for this setting: pH 6.6, read-out: MIC M. smegmatis.
[18] abbreviates: pH 6, read-out: MIC M. aurum µg/mL.

Molecules are shown by their SMILES. Values after ≈ are worked out from the molar mass of the structure shown. Read-outs that look alike come from different tables or passages of the source.

Turning to `COC(=O)CC[C@@H](NC(=O)c1cnccn1)C(=O)OC` [PC-D-Glu-diMe, dimethyl (pyrazine-2-carbonyl)-D-glutamate], the MIC in series [1] is above 500 µM; in series [2] (pH 6), at least 500 µg/mL; in [2] (pH 6, read-out: MIC Mtb H37Ra) it was at least 500 µg/mL; in series [2] (setting [14]), at least 500 µg/mL; in series [2] (setting [15]) it was at least 1780 µM; in series [3], above 500 µM. The MIC in series [4] (setting [16]) is at least 500 µg/mL; in [4] (setting [17]) it was at least 500 µg/mL; in series [5], above 500 µM; in series [6] it was above 500 µM; in [7] (setting [18]), at least 500 µg/mL; in series [7] (pH 6.6, read-out: MIC M. aurum) it was at least 500 µg/mL. In addition, the MIC in series [8], in series [10], in series [11], in series [12] and in series [13] was above 500 µM in each case. For the same molecule, the “MIC KP” value in [9] is above 500 µM.
For `COC(=O)[C@@H](COC(C)(C)C)NC(=O)c1cnccn1` [PC-D-OtBu-Ser-Me, methyl O-(tert-butyl)-N-(pyrazine-2-carbonyl)-D-serinate], the MIC was above 500 µM in [1]; at least 500 µg/mL in [2] (pH 6); at least 500 µg/mL in series [2] (pH 6, read-out: MIC Mtb H37Ra); at least 500 µg/mL in series [2] (setting [14]); at least 1780 µM in series [2] (setting [15]); above 500 µM in [3]. For the same molecule, the MIC in series [4] (setting [16]) is at least 500 µg/mL; in series [4] (setting [17]), at least 500 µg/mL; in series [5] it was above 500 µM; in series [6], above 500 µM; in series [7] (setting [18]), at least 500 µg/mL; in series [7] (pH 6.6, read-out: MIC M. aurum) it was at least 500 µg/mL. Besides, the MIC in series [8], in series [10], in series [11], in series [12] and in series [13] was above 500 µM in each case. Moreover, the “MIC KP” value in series [9] is listed as above 500 µM.
Turning to `COC(=O)[C@H](NC(=O)c1cnccn1)[C@H](C)OC(C)(C)C` [PC-D-OtBu-Thr-Me, methyl O-(tert-butyl)-N-(pyrazine-2-carbonyl)-D-threoninate], the MIC is above 500 µM in series [1]; 62.5 µg/mL in series [2] (pH 6); 62.5 µg/mL in series [2] (pH 6, read-out: MIC Mtb H37Ra); at least 500 µg/mL in series [2] (setting [14]); 212 µM in [2] (setting [15]); above 500 µM in series [3]. The MIC in series [4] (setting [16]) is at least 500 µg/mL; in series [4] (setting [17]), at least 500 µg/mL; in series [5] it was above 500 µM; in series [6] it was above 500 µM; in series [7] (setting [18]), at least 500 µg/mL; in series [7] (pH 6.6, read-out: MIC M. aurum), at least 500 µg/mL. Besides, the MIC in series [8], in series [10], in [11], in series [12] and in series [13] was above 500 µM in each case. The “MIC KP” value in series [9] is above 500 µM.
Consider `COC(=O)[C@@H](CO)NC(=O)c1cnccn1` [PC-D-Ser-Me, methyl (pyrazine-2-carbonyl)-D-serinate], for which the MIC was above 500 µM in series [1]; 250 µg/mL in series [2] (pH 6); 250 µg/mL in series [2] (pH 6, read-out: MIC Mtb H37Ra); at least 500 µg/mL in [2] (setting [14]); 1110 µM in series [2] (setting [15]); above 500 µM in series [3]. For the same molecule, the MIC in series [4] (setting [16]) was at least 500 µg/mL; in series [4] (setting [17]) it was at least 500 µg/mL; in [5], above 500 µM; in [6], above 500 µM; in series [7] (setting [18]), 250 µg/mL (≈ 1110 µM); in [7] (pH 6.6, read-out: MIC M. aurum), at least 500 µg/mL. Moreover, the MIC in series [8], in series [10], in [11], in [12] and in [13] was above 500 µM in each case. The “MIC KP” value in series [9] was above 500 µM.
